Where two headings read alike, the source gives them in different places.
Experiments:
[1] = Acute toxicity by single oral administration; assay type: in vivo; settings: mouse, in vivo
Protocol: (§1) The toxicity by single administration has been determined by oral route in male mice IVA:NMRI (SPF), fasting, with water ad libitum 18 hours before the experiment. The substances under exam were suspended in 1% carboxymethylcellulose.

[2] = tested on: male mice IVA:NMRI (SPF); test: Acute toxicity by single oral administration; assay type: in vivo; settings: versus piroxicam
Protocol: as §1

[3] = tested on: oedema induced in the rat's paw by carrageenin; test: Antiinflammatory activity in the test of plantar edema by carrageenin; assay type: in vivo, Crl: CD(SD) male rats; settings: for ED30: Rattus norvegicus, po; for antiinflammatory activity (in words): comparison with piroxicam, rat
Protocol: Crl: CD(SD) male rats, weighing 170-205 g, previously subjected to an acclimation period of at least one week through housing in environment with co.stant thermohygrometric conditions and fa sting with water ad libitum 18 hours before the start of the test, have been distributed "at ran dom" in groups of 5-6 animals each (4 groups cor responding to 4 different dose levels for each compound). A group of control animals has been treated only with the vehicle. […] Soc. Exp. Biol. Med. 111, 544, 1962). The volume of the treated paw has been measured by means of a water-mercury pletismometer according to Leuce P., Arch. Int. Pharmacodyn. 136, 237, 1962) immediately before and at different […] injection of the phlogogenic agent. The results have been expressed as ED30 values calculated on the logarithmic regression straight lines of the percent dose/inhibition of the oedema development, in turn determined from the ratio between the mean AUC value (area under the curve representing the development of the paw volume in the time) in the different treated animals groups and the respective control groups.

[4] = tested on: gastric mucosa; test: Gastrolesive activity (macroscopic control of the gastric mucosa); assay type: in vivo, Crl: CD(SD) male rats; settings: for Therapeutic index UD3/ED30 / Gastrolesive activity UD3: oral route, exp. session I and II (r4-r7); for Therapeutic index UD3/ED30: rat; for Gastrolesive activity UD3: dose expected to give gastric lesion of total extension of 3 mm, 7 hours after administration; for improvement of tolerability (in words): versus parent compound piroxicam
Text: On the ground of such lines the calculation of UD3 values, that is a dose whereby a gastric lesion of the total extension of 3 mm is expected, has been performed.

[5] = tested on: plantar oedema by nystatin in the rat; test: Plantar oedema by nystatin; assay type: in vivo; settings: on molar basis, times as active as piroxicam
Text: (§2) In other tests of direct comparison between piro xicam and CHF 1021, the latter confirmed its anti inflammatory activity, along with a good analgesic and antipiretic activity.

[6] = tested on: erythema by U.V. in the guinea pig; test: Erythema by U.V.; assay type: in vivo; settings: on molar basis, times as active as piroxicam
Text: as §2

[7] = tested on: writhing test by phenylquinone in the mouse; test: Writhing test by phenylquinone; assay type: in vivo; settings: on molar basis, times as active as piroxicam
Text: as §2

[8] = tested on: fever by beer's yeast; test: Fever by beer's yeast; assay type: in vivo, reat; settings: on molar basis, times as active as piroxicam
Text: as §2

[9] = tested on: arthritis by adjuvant in the rat; test: Arthritis by adjuvant; assay type: in vivo; settings: direct comparison with piroxicam
Text: as §2

[10] = Preliminary clinical data; assay type: in vivo
[11] = single administration, oral route, fasting male mice, suspended in 1% carboxymethylcellulose, interpolation on Probit paper, read-out: Approx. LD50
[12] = 1 hour before carrageenin, from inhibition of oedema AUC, exp. session I and II (r4-r7)

Row | SMILES | LD50 [1, 11] [mg/kg] | acute toxicity, lower in comparison to the reference compound [2] | ED30 [3, 12] [µmol/kg] | antiinflammatory activity (in words) ([3]; oral route) | Therapeutic index UD3/ED30 [4] | Gastrolesive activity UD3 [4] [µmol/kg] | ulcerogenic activity, times lower in comparison to the reference compound ([4]; versus piroxicam) | potency ratio (ratio between ED50 values) [5] | potency ratio (ratio between ED50 values) [6] | potency ratio (ratio between ED50 values) [7] | potency ratio (ratio between ED50 values) [8] | activity on the arthritis by adjuvant (in words) [9] | antiinflammatory activity in comparison with piroxicam (in words) [10] | incidence of side effects relative to the reference drug ([10]; fraction of that of piroxicam) | LD50 ([1]; po) [mg/kg] | improvement of tolerability (in words) [4] | ulcerogenic potency ratio ([4]; ratio to piroxicam taken as 1) | Antiinflammatory activity ED30 ([3]; oral route, 1 hour before carrageenin, from inhibition of oedema AUC, exp. session I and II (r4-r7)) [µmol/kg]
1 | CN1C(C(=O)Nc2ccccn2)=C(OC(=O)C(C)(C)C)c2ccccc2S1(=O)=O [CHF 1021, 4-Pivaloyloxy-2-methyl-2H-1,2-benzothiazine-3-[N-(2-pyridyl)-carboxamide]-1,1-dioxide] | 1800 | about 35% | 7.9 | comparable to the one of the reference compound | 12.3 | 97.2 | at least 10 times | 1.52 | 0.49 | 0.72 | 0.71 | almost equally active | practically equally active | about 1/3 |  |  |  | 
2 | CN1C(C(=O)Nc2nccs2)=C(OC(=O)C(C)(C)C)c2ccccc2S1(=O)=O [CHF 1047, 4-pivaloyloxy-2-methyl-2H-1,2-benzothiazine-3-[N-(2-thiazolyl)-carboxamide]-1,1-dioxide] | > 3000 |  | ~762 | very low | 0.2 | 121.2 |  |  |  |  |  |  |  |  |  |  |  | 
3 | CCCCC(=O)OC1=C(C(=O)Nc2ccccn2)N(C)S(=O)(=O)c2ccccc21 [CHF 1109] |  |  | 7 | analogous or also slightly higher than the one of the parent compound | 4.0 | 28.2 |  |  |  |  |  |  |  |  | 1100 | do not show an improvement |  | 
4 | CCCC(=O)OC1=C(C(=O)Nc2ccccn2)N(C)S(=O)(=O)c2ccccc21 [CHF 1115] |  |  | 5.7 | analogous or also slightly higher than the one of the parent compound | 4.2 | 23.9 |  |  |  |  |  |  |  |  | 880 | do not show an improvement | 0.88 | 
5 | CN1C(C(=O)Nc2ccccn2)=C(O)c2ccccc2S1(=O)=O [piroxicam, reference compound] | 345 |  | 7.8 |  |  |  |  |  |  |  |  |  |  |  |  |  |  | 9.7

— EP0085866A1, “Derivatives of benzo-1,2-thiazine-1,1-dioxide, a process for their preparation and pharmaceutical compositions containing the same” (priority 1982, dated 1983)
